Laboratory results from patent US6559101B2, “N- (5, 7-dimethoxy [1, 2, 4] triazolo [1, 5-a] pyrimidin-2-yl) arylsulfonamide compounds and their use as herbicides” (Dow AgroSciences LLC, priority 2000, dated 2003).

Tests used:
[1] = tested on: crabgrass (Digitaria sanguinalis); assay: Preemergence herbicidal activity; format: in vivo; settings: 17.5 g/Ha; scored after 3 weeks; 0 no injury, 100 complete kill or no germination
In short: (§1)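 Seeded pots received a pre-emergence spray of compound diluted in aqueous Tween 155 (from an acetone/DMSO stock), highest rate 4.48 kg/ha; blank-treated pots served as controls. After 3 weeks under greenhouse lighting and temperature, plants were scored 0-100%, where 100 means total kill or failure to germinate.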

wild oats (Avena fatua) [2] = assay: Preemergence herbicidal activity; format: in vivo; settings: 17.5 g/Ha; scored after 3 weeks; 0 no injury, 100 complete kill or no germination
In short: as §1

[3] = tested on: blackgrass (Alopecurus myosuroides); assay: Preemergence herbicidal activity; format: in vivo; settings: 17.5 g/Ha; scored after 3 weeks; 0 no injury, 100 complete kill or no germination
In short: as §1

[4] = tested on: pigweed (Amaranthus retroflexus); assay: Preemergence herbicidal activity; format: in vivo; settings: 17.5 g/Ha; scored after 3 weeks; 0 no injury, 100 complete kill or no germination
In short: as §1

[5] = tested on: giant foxtail (Setaria faberi); assay: Preemergence herbicidal activity; format: in vivo; settings: 17.5 g/Ha; scored after 3 weeks; 0 no injury, 100 complete kill or no germination
In short: as §1

[6] = tested on: lambsquarters (Chenopodium album); assay: Preemergence herbicidal activity; format: in vivo; settings: 17.5 g/Ha; scored after 3 weeks; 0 no injury, 100 complete kill or no germination
In short: as §1

[7] = tested on: Rox orange sorghum (Sorghum bicolor); assay: Preemergence herbicidal activity; format: in vivo; settings: 17.5 g/Ha; scored after 3 weeks; 0 no injury, 100 complete kill or no germination
In short: as §1

[8] = tested on: velvetleaf (Abutilion theophrasti); assay: Preemergence herbicidal activity; format: in vivo; settings: 17.5 g/Ha; scored after 3 weeks; 0 no injury, 100 complete kill or no germination
In short: as §1

[9] = tested on: barnyardgrass (Echinochloa crus-galli); assay: Preemergence herbicidal activity; format: in vivo; settings: 17.5 g/Ha; scored after 3 weeks; 0 no injury, 100 complete kill or no germination
In short: as §1

[10] = tested on: wild poinsettia (Euphorbia heterophylla); assay: Preemergence herbicidal activity; format: in vivo; settings: 17.5 g/Ha; scored after 3 weeks; 0 no injury, 100 complete kill or no germination
In short: as §1

[11] = tested on: cocklebur (Xanthium strumarium); assay: Preemergence herbicidal activity; format: in vivo; settings: 17.5 g/Ha; scored after 3 weeks; 0 no injury, 100 complete kill or no germination
In short: as §1

[12] = tested on: morningglory (Ipomoea hederacea); assay: Preemergence herbicidal activity; format: in vivo; settings: 17.5 g/Ha; scored after 3 weeks; 0 no injury, 100 complete kill or no germination
In short: as §1

viola (Viola tricolor) = assay: Postemergence herbicidal activity; format: in vivo; settings: 7.8 ppm; scored after 2 weeks; 0 no injury, 100 complete kill
In short: (§2)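 Percent injury, rated visually two weeks after application against untreated plants, reflects a thorough-coverage spray given at the first to second true leaf stage. Application rates in ppm approximate g/ha (1 ppm ≈ 1 g/ha).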

wild oats (Avena fatua) [13] = assay: Postemergence herbicidal activity; format: in vivo; settings: 7.8 ppm; scored after 2 weeks; 0 no injury, 100 complete kill
In short: as §2

[14] = tested on: blackgrass (Alopecurus myosuroides); assay: Postemergence herbicidal activity; format: in vivo; settings: 7.8 ppm; scored after 2 weeks; 0 no injury, 100 complete kill
In short: as §2

[15] = tested on: pigweed (Amaranthus retroflexus); assay: Postemergence herbicidal activity; format: in vivo; settings: 7.8 ppm; scored after 2 weeks; 0 no injury, 100 complete kill
In short: as §2

[16] = tested on: giant foxtail (Setaria faberi); assay: Postemergence herbicidal activity; format: in vivo; settings: 7.8 ppm; scored after 2 weeks; 0 no injury, 100 complete kill
In short: as §2

[17] = tested on: wild buckwheat (Polygonum convolvulus); assay: Postemergence herbicidal activity; format: in vivo; settings: 7.8 ppm; scored after 2 weeks; 0 no injury, 100 complete kill
In short: as §2

[18] = tested on: lambsquarters (Chenopodium album); assay: Postemergence herbicidal activity; format: in vivo; settings: 7.8 ppm; scored after 2 weeks; 0 no injury, 100 complete kill
In short: as §2

[19] = tested on: chickweed (Stellaria media); assay: Postemergence herbicidal activity; format: in vivo; settings: 7.8 ppm; scored after 2 weeks; 0 no injury, 100 complete kill
In short: as §2

[20] = tested on: Rox orange sorghum (Sorghum bicolor); assay: Postemergence herbicidal activity; format: in vivo; settings: 7.8 ppm; scored after 2 weeks; 0 no injury, 100 complete kill
In short: as §2

[21] = tested on: velvetleaf (Abutilion theophrasti); assay: Postemergence herbicidal activity; format: in vivo; settings: 7.8 ppm; scored after 2 weeks; 0 no injury, 100 complete kill
In short: as §2

[22] = tested on: cocklebur (Xanthium strumarium); assay: Postemergence herbicidal activity; format: in vivo; settings: 7.8 ppm; scored after 2 weeks; 0 no injury, 100 complete kill
In short: as §2

[23] = tested on: morningglory (Ipomoea hederacea); assay: Postemergence herbicidal activity; format: in vivo; settings: 7.8 ppm; scored after 2 weeks; 0 no injury, 100 complete kill
In short: as §2

[24] = tested on: Spring wheat (Triticum aestivum); assay: Postemergence herbicidal activity with safener, crop injury; format: in vivo; settings: 25 g/ha postemergence; 3 weeks after application; 0 no injury, 100 complete kill
Text: (§3) Pre-formulated test materials utilized were as follows: Compound 15 as a 30 g ai/L emulsified concentrate (3% Compound 15, 3% Agrimer AL-10 (copolymer of 1-ethenyl-2-pyrolidinone and 1-butene), 94% N-methyl pyrrolidone w/w) and cloquintocet-mexyl (CQC) as a 120 g ai/L emulsified concentrate (12% cloquintocet-mexyl, 2.5% Toximul D, 2.5% Toximul H, [blends of calcium dodecylbenzenesulfonate plus castor oil ehtoxylates, nonylphenol ethoxylates and EO-PO block copolymers] 83% aromatic 200 w/w). Diluted stock solutions of formulated materials were made in distilled water. Final spray solutions were made by adding specified aliquots of diluted stock materials to a solution containing distilled water and X-77 surfactant at 0.25% v/v. The solutions were applied using a mechanized track-sprayer calibrated to deliver 187 1/ha carrier volume with a nozzle (flat fan) pressure of 276 kilopascals.
(§4) Assessment of weed control and crop injury was taken a 3 weeks after application. Plant injury was visually assessed on a scale of 0 to 100% with 0 equal to no injury and 100 equal to complete kill.

[25] = tested on: Italian ryegrass (Lolium multiflorum); assay: Postemergence herbicidal activity with safener; format: in vivo; settings: 25 g/ha postemergence; 0 no injury, 100 complete kill
Text: as §3, §4

[26] = tested on: blackgrass (Alopecurus myosuroides); assay: Postemergence herbicidal activity with safener; format: in vivo; settings: 25 g/ha postemergence; 0 no injury, 100 complete kill
Text: as §3, §4

Wild oat (Avena fatua) = assay: Postemergence herbicidal activity with safener; format: in vivo; settings: 25 g/ha postemergence; 0 no injury, 100 complete kill
Text: as §3, §4

[27] = tested on: Green foxtail (Setaria viridis); assay: Postemergence herbicidal activity with safener; format: in vivo; settings: 25 g/ha postemergence; 0 no injury, 100 complete kill
Text: as §3, §4

[28] = tested on: Windgrass (Apera spica-venta); assay: Postemergence herbicidal activity with safener; format: in vivo; settings: 25 g/ha postemergence; 0 no injury, 100 complete kill
Text: as §3, §4

Row | SMILES | Preemergence herbicidal activity DIGSA [1] [%] | Preemergence herbicidal activity AVEFA (wild oats (Avena fatua) [2]) [%] | Preemergence herbicidal activity ALOMY [3] [%] | Preemergence herbicidal activity AMARE [4] [%] | Preemergence herbicidal activity SETFA [5] [%] | Preemergence herbicidal activity CHEAL [6] [%] | Preemergence herbicidal activity SORBI [7] [%] | Preemergence herbicidal activity ABUTH [8] [%] | Preemergence herbicidal activity ECHCG [9] [%] | Preemergence herbicidal activity EPHHL [10] [%] | Preemergence herbicidal activity XANST [11] [%] | Preemergence herbicidal activity IPOHE [12] [%] | Postemergence herbicidal activity VIOTR (viola (Viola tricolor)) [%] | Postemergence herbicidal activity AVEFA (wild oats (Avena fatua) [13]) [%] | Postemergence herbicidal activity ALOMY [14] [%] | Postemergence herbicidal activity AMARE [15] [%] | Postemergence herbicidal activity SETFA [16] [%] | Postemergence herbicidal activity POLCO [17] [%] | Postemergence herbicidal activity CHEAL [18] [%] | Postemergence herbicidal activity STEME [19] [%] | also measured
1 | COc1cc(OC)n2nc(NS(=O)(=O)c3c(Cl)cccc3Cl)nc2n1 [Compound 1, N-(5,7-dimethoxy[1,2,4]triazolo-[1,5-a]pyrimidin-2-yl)-2,6-dichlorobenzene-sulfonamide] | 98 | 100 | 100 | 100 | 95 | 98 | 98 | 99 | 98 | 70 | 100 | 80 | 75 | 95 | 90 | 90 | 98 | 95 | 90 | 95 | melting point: 211 to 213 °C; Postemergence herbicidal activity SORBI [20]: 90%; Postemergence herbicidal activity ABUTH [21]: 85%; Postemergence herbicidal activity XANST [22]: 85%; Postemergence herbicidal activity IPOHE [23]: 80%
2 | COc1cc(OC)n2nc(NS(=O)(=O)c3c(C(F)(F)F)ccnc3OC)nc2n1 [Compound 15, N-(5,7-dimethoxy[1,2,4]triazolo[1,5-a]pyrimidin-2-yl)-2-methoxy-4-(trifluoromethyl)-3-pyridinesulfonamide] | 98 | 98 | 100 | 70 | 100 | 100 | 100 | 95 | 98 | 98 | 95 | 95 | 95 | 98 | 99 | 98 | 100 | 98 | 95 | 98 | % Injury TRZAS [24]: 47%; % Control 3 Weeks After Application LOLMU [25]: 99%; % Control 3 Weeks After Application ALOMY [26]: 99%; % Control 3 Weeks After Application AVEFA (Wild oat (Avena fatua)): 99%; % Control 3 Weeks After Application SETVI [27]: 99%; % Control 3 Weeks After Application APSEV [28]: 100%; Postemergence herbicidal activity SORBI [20]: 98%; Postemergence herbicidal activity ABUTH [21]: 95%; Postemergence herbicidal activity XANST [22]: 90%
